# According to patent US8193235B2, “Compositions and methods for establishing and maintaining stem cells in an undifferentiated state” (University of Kansas, priority 2009, dated 2012):
# Assays:
# Format in all cases: cell-based, mouse
# [1] = system: Akt; test: Akt phosphorylation in mESCs
# Protocol: E14 ES Cell Cultures. Cells were grown in ES-IMDM media (Lonza, Walkersville, Md.) in a feeder-free condition. ES-IMDM was supplemented with 15% serum, 10^5 U/100 ml of LIF (ESGRO, Millipore, Calif.) and 0.0124% monothioglycerol (MTG; Sigma Aldrich). Cells were grown for 3-5 days with change of medium every day. For inducing differentiation in monolayer culture and to determine the effect of Gö6983 in preventing differentiation, E14 cells were cultured on gelatin-coated plastics for 8 days without LIF. Details of experiments performed at clonal-density are described herein. To maintain E14 cells with Gö6983, serum supplemented ES-IMDM was used in the presence of 5 μM Gö6983 and was passed after every 3-5 days. For all assays involving elucidation of different signaling mechanism responsible for maintenance of pluripotency, cells from a ˜70% confluent ES culture plate were washed two times with 1× phosphate-buffered saline (PBS), trypsinized and plated on a 6-well tissue culture plate and treated with or without LIF or Gö6983 or different inhibitors for ˜10 hours followed by preparation of protein lysates and RNA. The PKCζ knocked-down E14 cells that were generated in this study were maintained in serum supplemented ES-IMDM on gelatin-coated plates in the absence of Gö6983 or LIF or any other inhibitor and passed after 3-5 days. […]
# [2] = system: 129/Sv MEFs; test: Generation of iPS cells from MEFs
# Protocol: Generation of iPS Cells. iPSCs were derived using lentiviral vectors (STEMGENT), expressing four mouse transcription factors (Oct4, Sox2, Klf4 […] c-Myc) under the control of the doxycycline (Dox)-inducible tetO operator. 129/Sv MEFs were infected with viral mix following manufacturer's protocol. Twenty hours post-transduction, cells were reseeded in ES cell growth medium with either LIF or Gö6983 at a density of 5×10^4 cells per well of a 6-well plate and treated with Dox (2 μg/ml) for 48 hours. To determine the phenotype of the iPS colonies, expression of two pluripotency markers, Nanog and Rex-1, were analyzed. For further analysis, each visible iPS colony was manually picked, trypsinized, cells were re-plated at clonal and higher density in medium with Gö6983 and the expression of pluripotent markers were confirmed by RT-PCR and immunofluorescence. For chimera generation, cells from two different iPS clones were propagated at clonal density with Gö6983, expanded for four passages and were injected into blastocysts.
# [3] = system: H3K27me3, EZH2, H3K9Me3, H3K4Me3 at gene loci; test: Quantitative ChIP assay of chromatin marks
# Protocol: Quantitative ChIP Assay. Real-time PCR-based quantitative ChIP analysis was performed according to known methods (Dutta, et al. (2008) supra). Proliferating E14 cells (+LIF), ES cells differentiated on Collagen-IV with or without Gö6983 were either trypsinized or collected by using cell-dissociaton buffer and protein-DNA crosslinking was conducted by treating cells with formaldehyde at a final concentration of 1% for 10 minutes at room temperature with gentle agitation. Glycine (0.125 M) was added to quench the reaction. Antibodies against EZH2, SUZ12, H3K27Me3, H3K9Me3, and H3K4Me3 were used to immunoprecipitate protein-DNA crosslinked fragments. Immunoprecipitated DNA was analyzed by real-time PCR (ABI 7500, Applied Biosystem, Foster City, Calif.). Samples from three or more immunoprecipitates were analyzed using a standard curve from sonicated total chromatin (input) samples.
# [4] = system: R1 ES cells; test: R1 ES cells without LIF and MEF feeder
# Protocol: R1 ES Cells. R1 Cells were maintained on MEF feeder in ES-IMDM media supplemented with 15% ES-cell quality serum, 10^5 U/100 ml of LIF. Cells were grown for 3-5 days with change of medium every day. For inducing differentiation in monolayer culture and to determine the effect of Gö6983, cells were cultured at feeder-free condition and without LIF for 7 days.
smiles,measurement,setting,value
"COc1ccc2c(c1)c(C1=C(c3c[nH]c4ccccc34)C(=O)NC1=O)cn2CCCN(C)C [Gö6983, 3-[1-[3-(dimethylamino)propyl]5-methoxy-1H-indol-3-yl]-4-(1H-indol-3-yl)-1H-pyrrole-2,5-dione]",Akt phosphorylation,[1],not associated with Akt phosphorylation
same,efficiency of obtaining matured iPSC colonies compared to LIF,[2]; FIG. 4B,three fold higher
same,time to appearance of ES cell-like iPSC colonies,"[2]; MEFs with Oct4, Sox2, KLF4, cMyc",12 days
same,rate of obtaining iPSC colonies compared to LIF,"[2]; colonies defined by Nanog and Rex-1, FIG. 4A",significantly faster rate
same,propagation of iPSCs at clonal density,[2]; with Gö6983,readily propagated at clonal density
same,H3K4 methylation (H3K4Me3) at Oct4 and Nanog loci,[3],high levels of H3K4 methylation
same,H3K9 methylation at the Oct4 and Nanog loci,[3],inhibited H3K9 methylation
same,H3K27me3 and EZH2 chromatin occupancy at developmental regulator genes,[3]; mESCs,maintained high levels of H3K27me3 and chromatin occupancy
same,maintenance of undifferentiated R1 ES cells,[4],replaced the requirement of LIF and MEF
